{"source": "patent US20240139167A1", "about": "“LYSOSOME-ASSOCIATED MEMBRANE PROTEIN TARGETING COMPOUNDS AND USES THEREOF” (HADASIT MEDICAL RESEARCH SERVICES AND DEVELOPMENT LTD., priority 2021, published 2024)", "key": {"Gbe^ys/ys mice": {"test_system": "Gbe^ys/ys mice", "assay": "In vivo metabolism in metabolic cages", "details": "9 months old mice", "description": "FIGS. 3A-3I include a graph of the effect of Compound 1 on in vivo metabolism; mice were monitored by the Promethion High-Definition Behavioral Phenotyping System (Sable Instruments, Inc.) over a 24 hr period. Effective mass was calculated by power of 0.75. Data are mean±SEM from n=11 9 months old mice in the wt. control vehicle arm, n=6 9 months old mice in the GBE^ys/ys vehicle arm and n=7 9 months old mice in the Gbe^ys/ys 144DG11 (Compound 1)-treated arm. All injections were from the age of 4 months. […] Blood metabolic panel based on n=5, 9.5 months old mice treated as indicated (3I). Blood glucose was increased, and blood triglycerides decreased in Gbe^ys/ys […] by Compound 1 (p<0.05, Student's t-tests). *p<0.05 v wt. controls, #p<0.05 v GBE^ys/ys vehicle treated mice;\nThe effect of Compound 1 on various metabolic parameters was determined in vivo using metabolic cages. Fuel preference at the whole animal level is determined by the respiratory quotient (RQ, the ratio of CO2 produced to O2 consumed). Lower RQ indicates higher fat burn, while higher RQ indicates higher carbohydrate burn. […] Stimulation of ambulatory activity (FIG. 3E) and of meal size and water intake (FIGS. 3F-3H) are in line with this observation of stimulation of carbohydrate catabolism in affected animals by Compound 1. Moreover, put together, the increased fuel burning, and food intake indicate that Compound 1 can improve metabolic efficiency in the affected animals."}, "[1]": {"test_system": "PD patient-derived skin fibroblasts", "assay": "Autophagic flux in Pompe disease fibroblasts", "type": "cell-based, human", "details": "serum starved, 50 μM, 24 h", "description": "FIG. 15 includes a micrograph and a vertical bar graph showing autophagic flux in PD patient-derived skin fibroblasts, serum starved and treated (or not) with 50 μM 144DG11 (indicated as comp. A).\n144DG11 can activate autophagy in the lysosomal storage disease (LSD) Pompe disease (PD) in which autophagy is perturbed (FIG. 15). […] This ratio serves as the most accepted marker for autophagy and autophagic flux. […] These observations indicate that, as in the GSD APBD, 144DG11 can activate autophagy also in the typical LSD PD in which autophagy is disturbed."}, "[2]": {"test_system": "LAMP1-KD and control APBD fibroblasts", "assay": "ATP Rate Assay in LAMP1-KD and control cells", "type": "cell-based, human", "description": "FIGS. 6A-6E include bar graphs of autophagic flux, determined by the extent of lysosomal inhibitors-dependent increase in the ratio of lipidated to non-lipidated LC3 (LC3II/LC3I) (6A); representative TEM images of liver tissue from 9.5 month old Gbe^ys/ys mice treated with Compound 11, or 5% DMSO vehicle (6B), G: Glycogen (alpha particles) and polyglucosan (structures with variable electron densities), L: Lysosomes, M: Mitochondria; right panel: lysosomal glycogen stain was quantified by ImageJ “count particle” tool; micrograph of LAMP1 knocked down and control APBD primary skin fibroblasts treated or not with Compound 1 and lysosomal inhibitors (LI) and quantification of 3 experiments and results of Student's t-tests. *, p<0.1; **, p<0.05; ***, p<0.01 (6C); graphs of lysosomal pH changes determined in APBD primary fibroblasts transduced with lentiviruses encoding for GFP or GFP-shLAMP1 and treated or not with Compound 1 for 24 h and confocal microscope images of cells treated with Lysosensor and stained for PAS (6D); and bar graph of ATP production rate assay in LAMP1-KD and GFP (Control) cells treated for 24 h (chronic) or on assay (acute) with Compound 1 (6E).\nTo test the effect of LAMP1-KD and Compound 1 on fuel utilization, the inventors again used the ATP Rate Assay (FIGS. 4A-4D) in LAMP1-KD and control APBD fibroblasts acutely or chronically treated with Compound 1."}}}
{"smiles": "COCCN(Cc1sccc1C)C(=O)c1cc(C)nc(O)c1", "note": "[Compound 1]", "values": [{"measurement": "ambulatory activity", "setting": "Gbe^ys/ys mice", "result": "Stimulation"}, {"measurement": "carbohydrate burning at the expense of fat burning", "setting": "Gbe^ys/ys mice", "result": "increases"}, {"measurement": "meal size and water intake", "setting": "Gbe^ys/ys mice", "result": "Stimulation"}, {"measurement": "total energy expenditure", "setting": "Gbe^ys/ys mice", "result": "increases"}, {"measurement": "respiratory quotient (RQ)", "setting": "Gbe^ys/ys mice; injections from age 4 months", "result": "increased RQ to even higher levels than those of the wild type (wt) animals"}, {"measurement": "sensitivity to vinblastine (increase in the LC3II/LC3I ratio)", "setting": "[1]", "result": "increased"}, {"measurement": "ATP production", "setting": "[2]; LAMP1-KD cells, non-starved, chronic and acute", "result": "significantly increased total and respiratory ATP production"}, {"measurement": "ATP production", "setting": "[2]; LAMP1-KD cells, starved, acute", "result": "increased both respiratory and glycolytic ATP"}, {"measurement": "ATP production", "setting": "[2]; LAMP1-KD cells, starved, chronic", "result": "only respiratory ATP production increased"}, {"measurement": "ATP production", "setting": "[2]; control cells, non-starved", "result": "only slightly influenced ATP production, and even acutely decreased it"}, {"measurement": "ATP production", "setting": "[2]; control cells, starved, acute", "result": "only increased respiratory ATP production"}, {"measurement": "ATP production", "setting": "[2]; control cells, starved, chronic", "result": "No significant effect"}]}
